# From patent publication US20190352297A1, “SELECTIVE AURORA A KINASE INHIBITORS” (UNIVERSITAT BERN, priority 2017, published 2019)
# Legend:
# Aurora A kinase domain = target: T1, Aurora A kinase domain (Homo sapiens, UniProt O14965); assay: HTRF kinase assay, Aurora A; format: biochemical
# T1 construct: human Aurora A kinase domain (residues 122-403 in the pET24-d vector); His-tag (cleaved yes); made in house; host or cells: E. coli BL21 (DE3) Rosetta
# T1 sequence (O14965 122-403): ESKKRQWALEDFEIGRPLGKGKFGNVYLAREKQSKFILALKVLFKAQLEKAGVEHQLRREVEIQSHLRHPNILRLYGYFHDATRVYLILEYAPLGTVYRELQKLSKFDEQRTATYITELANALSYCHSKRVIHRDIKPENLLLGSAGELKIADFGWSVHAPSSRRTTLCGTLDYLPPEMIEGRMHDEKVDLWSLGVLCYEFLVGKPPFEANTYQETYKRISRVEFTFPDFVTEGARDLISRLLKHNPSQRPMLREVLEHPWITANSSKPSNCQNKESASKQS
# Method: The clone of human Aurora A kinase domain (residues 122-403 in the pET24-d vector) was kindly provided by the Montoya laboratory (University of Copenhagen). The construct was transformed into E. coli BL21 (DE3) Rosetta cells and protein expression was induced with 0.5 mM IPTG at 20° C. for 12 hours. The cells were harvested at 6,000×g for 25 min at 4° C. and resuspended in lysis buffer (50 mM Tris-HCl, 500 mM NaCl, 1 mM PMSF, pH=8.0). Disruption of the cells was performed by sonication cooled on ice, after which the debris were removed by centrifugation at 110,000×g for 30 min at 4° C. Aurora A was purified by affinity chromatography using NiNTA resin from Qiagen following the manufacturer's instructions. After loading, the resin was washed with lysis buffer, followed by a second wash with 6% elution buffer (50 mM Tris-HCl, 500 mM NaCl, 500 mM imidazole, pH=8.0). Protein was eluted with 100% elution buffer. The eluate was exchanged into final buffer (20 mM Tris-HCl, 200 mM NaCl, 0.5 mM EDTA, 2 mM DTT, pH=8.0) using a HiPrep 26/10 desalting column (GE Healthcare). The His-tag was cleaved with TEV protease at 4° C. overnight. […] Protein concentration was determined by UV absorbance. […]
# Aurora A and AuroraB kinases were assayed using the homogeneous time-resolved fluorescence (HTRF) KinEASE STK2 kit from Cisbio (France). […] After incubation at room temperature for one hour, fluorescence was measured at 620 nm (europium cryptate) and 665 nm (XL-665) after excitation at 317 nm (lag time 60 μs, integration time 500 μs) using a Tecan Infinite M1000 PRO microplate reader (Greiner 384-well plates, white, non-binding, small volume). The ratio of fluorescence (665 nm/620 nm) was calculated for each well and the results were expressed as follows: specific signal=ratio (sample)−ratio (negative control), where ratio=665 nm/620 nm×10^4. Compounds were measured in threefold serial dilutions at 10 different concentrations, covering the concentration range from no to full inhibition. Each concentration was measured in duplicates, and two independent determinations were made for each IC50 value. […]
# pThr288 Aurora A = assay: Phosphorylation of Aurora A Thr288 in cells; format: cell-based, human
# Method: (§1) HeLa Kyoto cells were cultured in high-glucose DMEM with GlutaMAX (Life Technologies) media supplemented with 10% fetal calf serum (FCS) in a humidified 5% CO2 incubator at 37° C. For plasmid transfections, cells were seeded at 80-90% confluence. 4 μg of plasmid DNA in 100 μl OptiMEM and 4 μl of Lipofectamine 2000 (Life Technologies) in 100 μl OptiMEM were incubated in parallel for 5 minutes, mixed for 20 minutes and added to each well. All Aurora A clones were constructed using full-length Aurora A as a template with appropriate PCR primer pairs. […] GFP-Aurora AR137A and GFP-Aurora AW277A were engineered using a site directed mutagenesis kit (Agilent Technologies, no. 210515) with appropriate primers. For determining the mitotic index and the chromosome misalignment phenotype, cells were incubated with various concentrations of compounds for 20 h before analysis. Cells were likewise treated with 0.25 μM MLN8237 (Selleckchem, no. S1133) or 5 μM ZM447439 (Selleckchem, no. S1103). For flow cytometry analysis, 50 nM […] and 2.5 μM ZM447439 were used. For rescue experiments, HeLa Kyoto cells were first transfected with GFP-Aurora A, GFP-Aurora AR137A or GFP-Aurora AW277A for 20 h, followed by incubation with 9 for another 20 h before cells were fixed with cold methanol and stained. To assess the impact of compound 9 on cell cycle progression, DNA content was analyzed after propidium iodide staining using FACS (BD Accuri C6 flow cytometer).
# For immunofluorescence, cells were fixed in cold methanol, washed in PBT (PBS supplemented with 0.05% Tween-20) and stained with the following primary antibodies: 1:200 rabbit anti-pT288 (Cell Signaling, C39D8), 1:200 rabbit anti-pH3S10 (Cell Signaling, D2C8), 1:500 mouse anti-α-tubulin (Transduction Laboratories, 612709), 1:300 mouse anti-GFP (MAB3580, Millipore), 1:200 anti-TPX2 (Santa Cruz Biotechnology, sc-32863), anti-Aurora A (Invitrogen, 458900). Secondary antibodies were anti-mouse conjugated to Alexa488 or Alexa568, as well as anti-rabbit conjugated to Alexa488 or Alexa568, all used at 1:500 (Invitrogen). […]
# HeLa Kyoto cells [1] = assay: Chromosome misalignment during metaphase; format: cell-based, human; details: HeLa Kyoto cells, 0.25 μM
# Method: as §1
# (§2) For immunofluorescence, cells were fixed in cold methanol, washed in PBT (PBS supplemented with 0.05% Tween-20) and stained with the following primary antibodies: 1:200 rabbit anti-pT288 (Cell Signaling, C39D8), 1:200 rabbit anti-pH3S10 (Cell Signaling, D2C8), 1:500 mouse anti-α-tubulin (Transduction Laboratories, 612709), 1:300 mouse anti-GFP (MAB3580, Millipore), 1:200 anti-TPX2 (Santa Cruz Biotechnology, sc-32863), anti-Aurora A (Invitrogen, 458900). Secondary antibodies were anti-mouse conjugated to Alexa488 or Alexa568, as well as anti-rabbit conjugated to Alexa488 or Alexa568, all used at 1:500 (Invitrogen). Confocal images were acquired on a Zeiss LSM 710 confocal microscope equipped with a Axiocam MRm (B/VVW) CCD camera using a 63×NA 1.0 oil objective and processed in ImageJ and Adobe Photoshop, maintaining relative image intensities within a series.
# Aurora A (pT288) = details: read-out: cellular IC50 (pT288) (reported); cited from earlier work
# Aurora B (pH3) = details: pH 3; read-out: cellular IC50 (pH3) (reported); cited from earlier work
# [2] = system: Aurora A localization, HeLa Kyoto cells; assay: Aurora A localization at the mitotic spindle (immunofluorescence); format: cell-based, human; details: overnight
# Method: as §1
# Secondary antibodies were anti-mouse conjugated to Alexa488 or Alexa568, as well as anti-rabbit conjugated to Alexa488 or Alexa568, all used at 1:500 (Invitrogen). Confocal images were acquired on a Zeiss LSM 710 confocal microscope equipped with a Axiocam MRm (B/VVW) CCD camera using a 63×NA 1.0 oil objective and processed in ImageJ and Adobe Photoshop, maintaining relative image intensities within a series.
# Aurora A (Trp277) = target: T2, Aurora A (Trp277) (Homo sapiens, UniProt O14965); assay: Intrinsic tryptophan fluorescence; format: binding
# T2 construct: human Aurora A kinase domain (residues 122-403 in the pET24-d vector); His-tag (cleaved yes); made in house; host or cells: E. coli BL21 (DE3) Rosetta
# T2 sequence (O14965 122-403): T1 sequence (O14965 122-403)
# Method: Binding experiments were performed by mixing Aurora A (500 nM, 375 nM, and 150 nM for 77, 9, and 88, respectively) with varying concentrations (0-100 μM) of the different compounds in buffer (final DMSO concentration 1%), followed by incubation for 15 min at room temperature. Tryptophan fluorescence spectra were recorded at room temperature using an Infinite M1000 Pro plate reader (Tecan) and Corning 96 well half area, flat bottom, non-binding surface, black polystyrene plates. Excitation occurred at 284 nm (bandwidth ±5 nm) and emission at 340 nm (bandwidth ±10 nm). The gain was calculated from the well with the highest protein concentration. Each measurement was done in triplicate.
# HeLa Kyoto cells [3] = assay: DNA content analysis by flow cytometry; format: cell-based, human; details: 48 h, 9 even at 10 μM
# Method: as §1, with “For rescue experiments, HeLa Kyoto cells were first transfected with GFP-Aurora A, GFP-Aurora AR137A or GFP-Aurora AW277A for 20 h, followed by incubation with 9 for another 20 h before cells were fixed with cold methanol and stained.” left out
# [4] = system: phospho-Histone H3 Ser10 (Aurora B); assay: Phospho-Histone H3 Ser10 in cells (Aurora B activity); format: cell-based, human; details: treated cells
# Method: as §1, §2
compound,measurement,setting,value
CCc1ccc(N=C2SC(Cc3ccnc(N)c3)C(=O)N2C)cc1 (racemic) [rac-91],fold less active than precursor 79,Aurora A kinase domain; Aurora A inhibition relative to 79,7 fold
CCc1ccc(N=C2SC(Cc3ccnc(Nc4ccc(C(=O)O)cn4)c3)C(=O)N2C)cc1 (racemic) [rac-92],IC50,"Aurora A kinase domain; free Aurora A, 20 μM ATP, HTRF, read-out: IC50 Aurora A (biochemical)",24 nM
same,activity in cells,pThr288 Aurora A,did not show any activity
same,cellular pThr288 Aurora-A levels,pThr288 Aurora A; overnight incubation,does not reduce pThr288 levels
"COc1cc(Nc2ncc3c(n2)-c2ccc(Cl)cc2C(c2c(F)cccc2OC)=NC3)ccc1C(=O)O [Compound 1, Alisertib, reference compound]",misaligned chromosomes,HeLa Kyoto cells [1],~100%
same,Aurora A localization at spindle microtubules and centrosomes,[2],present at centrosomes but not on spindle microtubules
same,Aurora A localization at spindle microtubules and centrosomes,[2]; listed as alisertib,notably displaced from the spindle microtubules
CCc1ccc(N=C2SC(=Cc3ccncc3)C(=O)N2CCOC)cc1 [Compound 77],"tryptophan fluorescence, environment of Trp277",Aurora A (Trp277),perturbed the environment of Trp277
CCc1ccc(N=C2SC(=Cc3ccnc(Nc4ccc(-c5nn[nH]n5)cc4)c3)C(=O)N2C)cc1 [Compound 88],"tryptophan fluorescence, environment of Trp277",Aurora A (Trp277),perturbed the environment of Trp277
"COc1cc2c(Nc3ccc(NC(=O)c4ccccc4)cc3)ncnc2cc1OCCCN1CCOCC1 [Compound 94, ZM447439, reference compound]",accumulation of cells with 8N and 16N DNA contents,HeLa Kyoto cells [3],massive accumulation
same,distribution of phospho-Histone H3 Ser10,[4],absent
O=C(O)[C@]1(Cc2cccc(Nc3nccs3)n2)CC[C@@H](Oc2cccc(Cl)c2F)CC1 [MK-5108],IC50,Aurora A (pT288),[…]
same,IC50,Aurora B (pH3),> 10000 nM
